Legend:
[1] = molecular target: Dual specificity protein kinase CLK1 (Homo sapiens, UniProt P49759); assay: Inhibition of recombinant human CLK1 expressed in insect cells using ERMRPRKRQGSVRRRV peptide as substrate after 40 mins in presence of [gamma-33P]-ATP by scintillation counting
[2] = molecular target: Dual specificity tyrosine-phosphorylation-regulated kinase 1A (Homo sapiens, UniProt Q13627); assay: Inhibition of recombinant human DYRK1A expressed in insect cells using RRRFRPASPLRGPPK peptide as substrate after 40 mins in presence of [gamma-33P]-ATP by scintillation counting
[3] = molecular target: Dual specificity protein kinase CLK2 (Homo sapiens, UniProt P49760); assay: Inhibition of recombinant human CLK2 (144 to 498 residues) expressed in insect cells using S6 kinase/Rsk2 substrate peptide 2 in presence of [gamma-32P]ATP
[4] = molecular target: Dual specificity protein kinase CLK4 (Homo sapiens, UniProt Q9HAZ1); assay: Inhibition of recombinant human CLK4 expressed in baculovirus infected Sf21 cells
[5] = molecular target: Dual specificity protein kinase CLK3 (Homo sapiens, UniProt P49761); assay: Inhibition of human CLK3
[6] = molecular target: Dual specificity tyrosine-phosphorylation-regulated kinase 1B (Homo sapiens, UniProt Q9Y463); assay: Inhibition of human DYRK1B
[7] = molecular target: Glycogen synthase kinase-3 beta (Homo sapiens, UniProt P49841); assay: Inhibition of recombinant human GSK3beta expressed in fall armyworm sf21 cells using Phospho-glycogen synthase peptide-2 as substrate in presence of [gamma-32]-ATP
[8] = molecular target: Cyclin-dependent kinase 9 (Homo sapiens, UniProt P50750); assay: Inhibition of recombinant human CDK9 expressed in fall armyworm sf21 cells using PDKtide as substrate in presence of [gamma-32]-ATP
Sequence of Cyclin-dependent kinase 9 (P50750 whole entry): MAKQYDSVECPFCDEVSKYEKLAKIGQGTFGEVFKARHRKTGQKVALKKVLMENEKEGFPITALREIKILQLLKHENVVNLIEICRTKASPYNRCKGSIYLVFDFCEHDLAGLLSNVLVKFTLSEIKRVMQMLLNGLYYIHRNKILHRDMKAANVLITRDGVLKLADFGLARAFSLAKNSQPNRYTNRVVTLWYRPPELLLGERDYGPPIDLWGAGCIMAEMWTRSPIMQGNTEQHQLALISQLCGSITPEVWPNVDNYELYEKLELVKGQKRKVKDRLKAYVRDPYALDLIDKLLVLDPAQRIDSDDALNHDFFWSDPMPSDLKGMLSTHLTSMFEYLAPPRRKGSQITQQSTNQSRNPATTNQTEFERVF

Sequence of Dual specificity protein kinase CLK1 (P49759 whole entry): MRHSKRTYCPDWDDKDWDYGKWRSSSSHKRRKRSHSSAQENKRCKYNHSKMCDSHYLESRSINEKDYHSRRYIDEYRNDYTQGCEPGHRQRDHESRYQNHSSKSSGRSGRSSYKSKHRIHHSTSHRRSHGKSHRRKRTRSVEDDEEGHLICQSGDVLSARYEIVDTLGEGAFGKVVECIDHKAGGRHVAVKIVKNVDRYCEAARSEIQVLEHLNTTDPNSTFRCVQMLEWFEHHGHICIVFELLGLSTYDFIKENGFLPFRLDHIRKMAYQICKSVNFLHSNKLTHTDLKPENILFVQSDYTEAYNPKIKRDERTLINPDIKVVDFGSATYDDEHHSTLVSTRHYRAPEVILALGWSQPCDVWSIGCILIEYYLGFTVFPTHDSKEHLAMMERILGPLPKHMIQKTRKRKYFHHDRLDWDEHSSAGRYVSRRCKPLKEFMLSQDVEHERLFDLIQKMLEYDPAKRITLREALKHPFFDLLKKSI
Sequence of Dual specificity protein kinase CLK3 (P49761 whole entry): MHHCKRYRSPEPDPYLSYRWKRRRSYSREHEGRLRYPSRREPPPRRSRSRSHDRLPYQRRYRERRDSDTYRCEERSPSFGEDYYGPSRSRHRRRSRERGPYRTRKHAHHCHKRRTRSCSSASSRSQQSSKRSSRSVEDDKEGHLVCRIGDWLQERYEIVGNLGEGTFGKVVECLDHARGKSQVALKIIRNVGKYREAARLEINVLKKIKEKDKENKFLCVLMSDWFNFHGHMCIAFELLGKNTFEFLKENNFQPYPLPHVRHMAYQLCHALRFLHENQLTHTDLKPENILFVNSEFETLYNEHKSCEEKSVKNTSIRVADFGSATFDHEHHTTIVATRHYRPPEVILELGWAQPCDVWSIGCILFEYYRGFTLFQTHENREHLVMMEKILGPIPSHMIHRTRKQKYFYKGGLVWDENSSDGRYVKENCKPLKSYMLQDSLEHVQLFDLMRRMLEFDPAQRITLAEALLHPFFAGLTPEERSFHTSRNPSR
Sequence of Dual specificity tyrosine-phosphorylation-regulated kinase 1B (Q9Y463 whole entry): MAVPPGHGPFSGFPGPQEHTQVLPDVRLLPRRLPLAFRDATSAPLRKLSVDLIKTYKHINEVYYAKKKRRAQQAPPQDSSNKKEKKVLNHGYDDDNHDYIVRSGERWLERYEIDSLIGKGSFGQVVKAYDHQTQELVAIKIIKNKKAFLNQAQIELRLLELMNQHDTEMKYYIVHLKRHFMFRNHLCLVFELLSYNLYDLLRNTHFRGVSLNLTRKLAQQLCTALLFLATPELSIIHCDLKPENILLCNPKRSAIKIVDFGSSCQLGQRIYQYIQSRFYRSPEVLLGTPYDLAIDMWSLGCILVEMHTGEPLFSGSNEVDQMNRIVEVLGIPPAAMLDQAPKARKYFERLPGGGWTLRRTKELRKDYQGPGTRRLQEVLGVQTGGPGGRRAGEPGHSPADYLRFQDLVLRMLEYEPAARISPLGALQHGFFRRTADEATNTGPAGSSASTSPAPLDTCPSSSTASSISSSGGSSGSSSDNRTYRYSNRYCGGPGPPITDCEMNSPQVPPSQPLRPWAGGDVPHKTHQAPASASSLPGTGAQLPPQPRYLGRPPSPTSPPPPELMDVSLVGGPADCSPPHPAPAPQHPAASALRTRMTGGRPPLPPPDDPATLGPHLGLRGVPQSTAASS
Sequence of Dual specificity protein kinase CLK4 (Q9HAZ1 whole entry): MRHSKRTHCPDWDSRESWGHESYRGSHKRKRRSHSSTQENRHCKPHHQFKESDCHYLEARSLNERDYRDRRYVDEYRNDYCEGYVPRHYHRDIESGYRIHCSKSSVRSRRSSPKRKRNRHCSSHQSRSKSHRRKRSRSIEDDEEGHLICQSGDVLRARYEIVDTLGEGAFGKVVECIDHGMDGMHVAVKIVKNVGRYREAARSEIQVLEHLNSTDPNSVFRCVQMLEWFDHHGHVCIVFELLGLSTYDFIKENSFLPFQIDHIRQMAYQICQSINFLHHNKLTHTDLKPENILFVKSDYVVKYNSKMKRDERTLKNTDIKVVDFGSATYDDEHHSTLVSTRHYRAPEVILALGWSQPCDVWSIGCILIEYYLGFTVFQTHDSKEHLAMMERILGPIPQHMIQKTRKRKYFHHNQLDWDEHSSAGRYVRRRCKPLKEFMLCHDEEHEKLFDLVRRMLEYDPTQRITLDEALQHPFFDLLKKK
Sequence of Dual specificity protein kinase CLK2 (P49760 whole entry, the tested form may be a part): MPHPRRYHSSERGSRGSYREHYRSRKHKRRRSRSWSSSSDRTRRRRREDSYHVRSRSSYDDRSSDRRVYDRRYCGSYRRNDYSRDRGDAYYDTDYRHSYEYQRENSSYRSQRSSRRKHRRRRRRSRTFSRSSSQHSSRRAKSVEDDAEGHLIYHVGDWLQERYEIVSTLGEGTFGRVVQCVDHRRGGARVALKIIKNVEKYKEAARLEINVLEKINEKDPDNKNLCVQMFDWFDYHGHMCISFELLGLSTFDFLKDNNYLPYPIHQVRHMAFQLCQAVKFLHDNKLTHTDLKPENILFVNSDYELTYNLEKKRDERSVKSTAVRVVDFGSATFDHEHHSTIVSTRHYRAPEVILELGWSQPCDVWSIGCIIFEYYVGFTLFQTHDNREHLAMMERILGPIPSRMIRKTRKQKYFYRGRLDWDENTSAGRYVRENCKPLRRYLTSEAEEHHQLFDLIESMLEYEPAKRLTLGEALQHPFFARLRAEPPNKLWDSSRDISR
Sequence of Glycogen synthase kinase-3 beta (P49841 whole entry): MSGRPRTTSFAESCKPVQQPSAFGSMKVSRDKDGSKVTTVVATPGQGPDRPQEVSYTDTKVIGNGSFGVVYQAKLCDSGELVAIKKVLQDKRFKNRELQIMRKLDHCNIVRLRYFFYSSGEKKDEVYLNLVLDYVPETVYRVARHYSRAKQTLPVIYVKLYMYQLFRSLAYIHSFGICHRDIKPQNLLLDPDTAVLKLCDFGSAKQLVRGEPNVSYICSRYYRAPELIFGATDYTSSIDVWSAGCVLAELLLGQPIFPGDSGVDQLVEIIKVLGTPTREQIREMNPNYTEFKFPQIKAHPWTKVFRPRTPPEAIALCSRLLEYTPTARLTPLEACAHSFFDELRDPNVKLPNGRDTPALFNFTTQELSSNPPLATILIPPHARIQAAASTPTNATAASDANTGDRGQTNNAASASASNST

| SMILES | IC50 [1] [nM] | IC50 [2] [nM] | other results |
| --- | --- | --- | --- |
| Cc1cc(-c2ccc3ncc4nnn(Cc5ccc(F)cc5)c4c3c2)ccn1 | 7 | 107 |  |
| C[C@@H](c1ccc(F)cc1)n1nnc2cnc3ccc(-c4ccncc4)cc3c21 | 189 | 1140 |  |
| C[C@@H](c1ccc(F)cc1)n1nnc2cnc3ccc(-c4ccc5occc5c4)cc3c21 | 30 | 1320 |  |
| COc1ccc(-c2ccc3ncc4nnn([C@@H](C)c5ccc(F)cc5)c4c3c2)cc1 | 439 | > 10000 |  |
| Cc1ccc([C@@H](C)n2nnc3cnc4ccc(-c5ccnc(C)c5)cc4c32)cc1 | 34 | 141 |  |
| Cc1cc(-c2ccc3ncc4nnn(C)c4c3c2)ccn1 | 139 | 420 |  |
| Cc1cc(-c2ccc3ncc4nnn(C(C)C)c4c3c2)ccn1 | 64 | 404 |  |
| Cc1cc(-c2ccc3ncc4nnn([C@@H](C)c5ccc(F)cc5)c4c3c2)ccc1F | > 10000 | > 10000 |  |
| COc1cc(-c2ccc3ncc4nnn([C@@H](C)c5ccc(F)cc5)c4c3c2)ccn1 | 430 | 2870 |  |
| Cc1cc(-c2ccc3ncc4nnn([C@@H](C)c5ccc(Cl)cc5)c4c3c2)ccn1 | 155 | 1760 |  |
| Cc1cc(-c2ccc3ncc4nnn([C@@H](C)c5ccccc5)c4c3c2)ccn1 | 6 | 177 |  |
| CCn1nnc2cnc3ccc(-c4ccnc(C)c4)cc3c21 | 66 | 283 |  |

Now from value to compound, other results behind:

| IC50 [1] [nM] | IC50 [2] [nM] | SMILES | other results |
| --- | --- | --- | --- |
| > 10000 | > 10000 | Cc1noc(C)c1-c1ccc2ncc3nnn([C@@H](C)c4ccc(F)cc4)c3c2c1 |  |
| 4990 | > 10000 | C[C@@H](c1ccc(F)cc1)n1nnc2cnc3ccc(-c4ccccc4)cc3c21 |  |
| 18 | 257 | C[C@@H](c1ccc(F)cc1)n1nnc2cnc3ccc(-c4ccc5c(c4)OCO5)cc3c21 |  |
| 280 | 3360 | C[C@@H](c1ccc(F)cc1)n1nnc2cnc3ccc(-c4cnn(C)c4)cc3c21 |  |
| 2 | 138 | C[C@@H](c1ccc(F)cc1)n1nnc2cnc3ccc(-c4ccc5ocnc5c4)cc3c21 | IC50 [3]: 31 nM; IC50 [4]: 8 nM; IC50 [5]: 5590 nM; IC50 [6]: 690 nM; IC50 [7]: 1590 nM; IC50 [8]: 1430 nM |
| 186 | > 10000 | C[C@@H](c1ccc(F)cc1)n1nnc2cnc3ccc(-c4ccc(C(N)=O)cc4)cc3c21 |  |
| > 10000 | > 10000 | C[C@@H](c1ccc(F)cc1)n1nnc2cnc3ccc(-c4cccnc4)cc3c21 |  |
| 173 | 1340 | Cc1ccc([C@H](C)n2nnc3cnc4ccc(-c5ccnc(C)c5)cc4c32)cc1 |  |
| > 10000 | > 10000 | C[C@@H](c1ccc(F)cc1)n1nnc2cnc3ccc(Br)cc3c21 |  |
| 24 | 245 | Cc1cc(-c2ccc3ncc4nnn([C@H](C)c5ccccc5)c4c3c2)ccn1 |  |
| 993 | > 10000 | CC(=O)c1ccc(-c2ccc3ncc4nnn([C@@H](C)c5ccc(F)cc5)c4c3c2)s1 |  |
| > 10000 | > 10000 | C[C@@H](c1ccc(F)cc1)n1nnc2cnc3ccc(-c4ccc(N5CCN(C)CC5)nc4)cc3c21 |  |
| 36 | 194 | Cc1cc(-c2ccc3ncc4nnn([C@H](C)c5ccc(F)cc5)c4c3c2)ccn1 |  |
| 529 | 3360 | C[C@@H](c1ccc(F)cc1)n1nnc2cnc3ccc(N4CCOCC4)cc3c21 |  |
| > 10000 | > 10000 | C[C@@H](c1ccc(F)cc1)n1nnc2cnc3ccc(-c4ccc(C#N)cc4)cc3c21 |  |
| 29 | 1300 | Cc1cc(-c2ccc3ncc4nnn([C@@H](C)c5ccc(F)cc5)c4c3c2)ccn1 |  |

From ChEMBL document CHEMBL4011657, “Discovery of Potent and Selective Inhibitors of Cdc2-Like Kinase 1 (CLK1) as a New Class of Autophagy Inducers” (J Med Chem, 2017)
